Measurements: PubChem BioAssay (NCI)
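Step 1: Grow cells in 96-well plates. Step 2: Expose to compound for 48 hours at 5 concentrations. Step 3: Interpolate endpoints linearly; if unreached, use highest concentration. GI50: concentration for 50% inhibition of growth. TGI: concentration producing complete growth inhibition.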

Experiments:
Assay in all cases: NCI-60 cell line screen, 48 h
HT29 colon = test system: HT29 colon
IGROV1 ovarian = test system: IGROV1 ovarian
OVCAR-3 ovarian = test system: OVCAR-3 ovarian
A549 NSCLC = test system: A549 NSCLC
NCI-H23 lung = test system: NCI-H23 lung
MOLT-4 leukemia = test system: MOLT-4 leukemia
HOP-92 NSCLC = test system: HOP-92 NSCLC
OVCAR-8 ovarian = test system: OVCAR-8 ovarian
KM20L2 colon = test system: KM20L2 colon

Row | Structure (SMILES) | GI50 (HT29 colon) [µM] | TGI (HT29 colon) [µM] | GI50 (IGROV1 ovarian) [µM] | TGI (IGROV1 ovarian) [µM] | GI50 (OVCAR-3 ovarian) [µM] | TGI (OVCAR-3 ovarian) [µM] | GI50 (A549 NSCLC) [µM] | TGI (A549 NSCLC) [µM] | GI50 (NCI-H23 lung) [µM] | TGI (NCI-H23 lung) [µM] | GI50 (MOLT-4 leukemia) [µM] | TGI (MOLT-4 leukemia) [µM] | GI50 (HOP-92 NSCLC) [µM] | TGI (HOP-92 NSCLC) [µM] | GI50 (OVCAR-8 ovarian) [µM] | TGI (OVCAR-8 ovarian) [µM] | TGI (KM20L2 colon) [µM]
1 | CCCCCCC/C=C/[C@H]1O[C@]2(O)C(=O)C=C3C[C@@H](O[C@@H]4O[C@H](CO)[C@@H](O)C(O)[C@@H]4O)C[C@@H]3[C@H]2C=C1C (some centres undefined) | 4.13 | 10 | 2.77 | 15.2 | 1.5 | 5.09 | 5.98 | 23.4 | 4.96 | 13 | 0.853 | 2.51 | 3.3 | 11.3 | 1.01 | 3.92 | 
2 | O=C(c1ccco1)c1c(C(F)(F)F)nc2ccc(C(F)(F)F)cc2[n+]1[O-] | > 61.4 | > 100 | 35.6 | > 92.7 | 28 | > 75.1 | > 64.4 | > 100 | > 80.4 | > 100 | > 100 | > 100 | 21 | 49.2 | 35.3 | > 100 | 
3 | Nc1ccccc1NC(=O)c1ccc(CN2CCC/C(=C\c3ccccn3)C2=O)cc1 | 0.443 | > 100 | 1.1 | > 100 | 2.37 | > 100 | 2.41 | > 100 | 2.11 | > 100 | 1.26 | > 100 | 0.143 | 2.98 | 0.878 | > 100 | 
4 | NC(=S)N/N=C/c1ccc(N)cn1 |  | > 10 |  | > 10 |  | > 10 |  | > 10 |  | > 8.9 |  | > 10 |  | > 10 |  | > 10 | 
5 | COc1cc2oc(-c3ccc(O)cc3O)c(CC=C(C)C)c(=O)c2c(O)c1/C=C/C(C)C |  | 5.74 |  | 12 |  | 4.94 |  | 7.75 |  | 8.87 |  | 5.24 |  | 7.3 |  | 3.18 | 
6 | CN(C)CCC=C1c2ccccc2C(C)(C)c2ccccc21 | 3.06 | 13.6 | 15.9 | 31.7 | 15.2 | 28.5 | 15.8 | 32 | 14 | 28.9 | 7.18 | 23 | 1.88 | 14.7 | 18.6 | 37.6 | 
7 | CC1=C(C(=O)Nc2ccc3[nH]ncc3c2)C(c2ccc(Cl)c(Cl)c2)CC(=O)N1 (centres undefined) | 24.6 | > 25 | 12.8 | > 25 | > 25 | > 25 | > 25 | > 25 | > 25 | > 25 | > 22.9 | > 25 | 0.277 | > 7.6 | > 25 | > 25 | 
8 | COC(=O)NC(=Nc1ccc(Oc2ccccc2)cc1NC=O)NC(=O)OC |  | 2.96 |  | > 100 |  |  |  | > 100 |  | > 100 |  | > 100 |  | > 100 |  | 8.57 | 0.49
9 | c1ccc(CN2CCC3(CC2)SSC2(CCN(Cc4ccccc4)CC2)SS3)cc1 |  | > 100 |  | > 100 |  | > 100 |  | > 100 |  | > 100 |  | > 100 |  | > 100 |  | > 100 | 
10 | C=C1CCC2C3(C)COC(c4c(OC)cccc4OC)OC3CCC2(C)C1C/C=C1/C(=O)OCC1O (centres undefined) | 2.51 | 6.62 | 1.89 | 4 | 1.94 | 3.95 | 3.14 | 11.6 | 3.98 | 15 | 3.22 | 13.3 | 2.92 | 8.51 | 3.09 | 11.5 | 
11 | CCCCCCCCCCCCCCCC(=O)N[C@H](/C=C/[C@H](O)CCCCCCCCCCCCC)CO | > 100 | > 100 | > 100 | > 100 | > 100 | > 100 | > 100 | > 100 | > 100 | > 100 | > 100 | > 100 | > 100 | > 100 | > 100 | > 100 | 
12 | CCCC[n+]1c(/C=C\c2c(OC)cc(OC)cc2OC)ccc2ccccc21 | 0.663 | 4.09 | 1.09 | 6.7 | 0.515 | 2.57 | 1.18 | 10.5 | 0.779 | 8.17 | 1.64 | 8.92 | 0.502 | 4.8 | 0.613 | 7.69 | 
13 | O=c1c2cccc(F)c2sc2c(N3CCNCC3)nc3ccccc3c12 | 1.13 | 2.59 | 1.22 | 2.55 | 1.59 | 3.04 | 0.89 | 2.71 | 1.57 | 3.1 | 0.449 | 1.71 | 1.11 | 2.6 | 1.51 | 3.42 | 
14 | O=C(N=Nc1c(O)[nH]c2ccccc12)c1oc2ccccc2c1CN1CCN(c2ccccc2)CC1 | 4.06 | > 50 | 2.41 | 11.2 | 1.02 | 1.94 | 1.54 | 8.21 | 2.01 | 8.73 | 1.96 | > 50 | 1.25 | 5.78 | 1.66 | 13.4 | 
15 | O=c1c2c(c3ccccc3n1-c1ccccc1)NC(=S)NC2c1ccc(Cl)cc1 (centres undefined) | 4.69 | > 100 | 4.57 | 27.2 | 2.86 | 15.6 | 4.25 | > 100 | 2.74 | 50.7 | 4.17 | > 100 | 2.38 | 19 | 4.01 | > 100 | 
16 | C[N+](C)(CCCCCC[N+](C)(C)CCCN1C(=O)c2cc3ccccc3cc2C1=O)CCCN1C(=O)c2cc3ccccc3cc2C1=O | > 37.5 | > 37.5 | > 37.5 | > 37.5 | > 37.5 | > 37.5 | > 37.5 | > 37.5 | > 37.5 | > 37.5 | > 37.5 | > 37.5 | > 37.5 | > 37.5 | > 37.5 | > 37.5 | 
